According to ChEMBL document CHEMBL1150407, “High-throughput evaluation of relative cell permeability between peptoids and peptides” (Bioorg Med Chem, 2008):

Target: T1, Glucocorticoid receptor (Homo sapiens, UniProt P04150)
T1 sequence (P04150 whole entry): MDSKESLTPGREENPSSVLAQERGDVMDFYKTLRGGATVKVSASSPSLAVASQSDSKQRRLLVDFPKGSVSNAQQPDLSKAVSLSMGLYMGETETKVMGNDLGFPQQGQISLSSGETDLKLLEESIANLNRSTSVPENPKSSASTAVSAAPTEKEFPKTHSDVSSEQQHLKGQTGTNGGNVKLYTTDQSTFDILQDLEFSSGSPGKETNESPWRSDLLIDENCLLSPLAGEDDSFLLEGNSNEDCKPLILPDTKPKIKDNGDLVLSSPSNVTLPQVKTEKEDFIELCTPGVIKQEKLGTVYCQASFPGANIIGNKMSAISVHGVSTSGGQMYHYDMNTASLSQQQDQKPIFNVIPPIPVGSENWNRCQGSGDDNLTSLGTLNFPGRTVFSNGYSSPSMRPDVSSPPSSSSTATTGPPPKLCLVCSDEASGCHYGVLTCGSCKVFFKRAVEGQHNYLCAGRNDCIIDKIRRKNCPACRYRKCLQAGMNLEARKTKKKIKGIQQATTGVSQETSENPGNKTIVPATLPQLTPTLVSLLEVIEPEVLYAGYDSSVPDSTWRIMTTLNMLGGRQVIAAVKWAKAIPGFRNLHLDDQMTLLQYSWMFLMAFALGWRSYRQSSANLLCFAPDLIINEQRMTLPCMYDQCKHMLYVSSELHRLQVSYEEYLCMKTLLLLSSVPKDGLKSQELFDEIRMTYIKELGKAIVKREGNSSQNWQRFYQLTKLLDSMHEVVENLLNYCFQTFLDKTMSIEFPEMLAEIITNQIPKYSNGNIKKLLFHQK
Assay: Inhibition of glucocorticoid receptor

| SMILES | IC50 |
| --- | --- |
| C[C@@H]1C[C@H]2[C@@H]3CCC4=CC(=O)C=C[C@]4(C)[C@@]3(F)[C@@H](O)C[C@]2(C)[C@@]1(O)C(=O)CSCCC(N)=O | 36 nM |
| C[C@@H]1C[C@H]2[C@@H]3CCC4=CC(=O)C=C[C@]4(C)[C@@]3(F)[C@@H](O)C[C@]2(C)[C@@]1(O)C(N)=O [OXDEX] | 600 nM |
